Test results as given in patent US20160222056A1, “SUBSTITUTED PHENYLALANINE DERIVATIVES” (BAYER PHARMA AKTIENGESELLSCHAFT, priority 2013, published 2016).
Where a name gives a salt, the structure may show the parent alone.

How the values were obtained:
Type in all cases: biochemical
human factor XIa = biological target: T1, human factor XIa (Homo sapiens, UniProt P03951); experiment: Measurement of FXIa inhibition (fluorogenic peptide substrate); conditions: human factor XIa from Kordia, substrate Boc-Glu(OBzl)-Ala-Arg-AMC, 30 min at 22° C.; read-out: IC50 (FXIa inhibition)
T1 construct: purchased Kordia
Description: To determine the factor XIa inhibition of the substances according to the invention, a biochemical test system is used which utilizes the reaction of a peptidic factor XIa substrate to determine the enzymatic activity of human factor XIa. Here, factor XIa cleaves from the peptic factor XIa substrate the C-terminal aminomethylcoumarin (AMC), the fluorescence of which is measured. The determinations are carried out in microtitre plates.
(§1) Test substances are dissolved in dimethyl sulphoxide and serially diluted in dimethyl sulphoxide (3000 μM to 0.0078 μM; resulting final concentrations in the test: 50 μM to 0.00013 μM). In each case 1 μl of the diluted substance solutions are placed into the wells of white microtitre plates from Greiner (384 wells). Subsequently, the following are added successively: 20 μl of assay buffer (50 mmol/1 Tris buffer pH 7.4; 100 mmol/1 sodium chloride; 5 mmol/1 calcium chloride; 0.1% bovine serum albumin) and 20 μl of factor XIa from Kordia (0.45 nM in assay buffer). After 15 min of incubation, the enzyme reaction is started by addition of 20 μl of the factor XIa substrate Boc-Glu(OBzl)-Ala-Arg-AMC dissolved in assay buffer (10 μM in assay buffer) from Bachem, the mixture is incubated at room temperature (22° C.) for 30 min and fluorescence is then measured (excitation: 360 nm, emission: 460 nm). The measured emissions of the test batches with test substance are compared to those of control batches without test substance (only dimethyl sulphoxide instead of test substance in dimethyl sulphoxide), and the IC50 values are calculated from the concentration/activity relationships.

human and animal plasma = experiment: Anticoagulatory activity: activated partial thromboplastin time (aPTT) in plasma; conditions: in vitro in plasma, C.K. Prest kit, 37° C. for 3 minutes; plasma species of Table B not stated
Description: The anticoagulatory activity of the test substances is determined in vitro in human and animal plasma (for example mouse, rat, rabbit, pig and dog plasma). To this end, blood is drawn off in a mixing ratio of sodium citrate/blood of 1:9 using a 0.11 molar sodium citrate solution as receiver. Immediately after the blood has been drawn off, it is mixed thoroughly and centrifuged at about 4000 g for 15 minutes. The supernatant is pipetted off.
The activated partial thromboplastin time (aPTT) is determined in the presence of varying concentrations of test substance or the corresponding solvent using a commercial test kit (C.K. Prest from Diagnostica Stago). The test compounds are incubated with the plasma and the PTT reagent (cephalin, kaolin) at 37° C. for 3 minutes. Coagulation is then started by addition of 25 mM aqueous calcium chloride, and the time when coagulation occurs is determined. The concentration of test substance which brings about a 1.5-fold extension of the aPTT is determined.

human plasmin = biological target: T2, human plasmin (Homo sapiens, UniProt P00747); experiment: Measurement of plasmin inhibition (fluorogenic peptide substrate); conditions: plasmin from Kordia, substrate MeOSuc-Ala-Phe-Lys-AMC, 30 min at 22° C.
T2 construct: purchased Kordia
Description: The plasmin inhibition of the inventive substances is determined using a biochemical test system which utilizes the reaction of a peptidic plasmin substrate to determine the enzymatic activity of human plasmin. Here, plasmin cleaves from the peptic plasmin substrate the C-terminal aminomethylcoumarin (AMC), the fluorescence of which is measured. The determinations are carried out in microtitre plates.
as §1, with “plasmin” for “factor XIa”, “(0.3 μg/ml” for “(0.45 nM”, “MeOSuc-Ala-Phe-Lys-AMC” for “Boc-Glu(OBzl)-Ala-Arg-AMC”, “(150” for “(10”

T2 sequence (P00747 581-810 limits assumed): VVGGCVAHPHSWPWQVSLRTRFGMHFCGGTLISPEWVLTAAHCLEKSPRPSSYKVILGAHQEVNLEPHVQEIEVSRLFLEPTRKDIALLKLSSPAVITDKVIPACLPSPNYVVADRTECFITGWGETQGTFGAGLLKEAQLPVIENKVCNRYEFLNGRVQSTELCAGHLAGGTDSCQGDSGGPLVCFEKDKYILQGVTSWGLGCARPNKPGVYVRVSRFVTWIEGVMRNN
T2 sequence (P00747 97-580 partner limits assumed): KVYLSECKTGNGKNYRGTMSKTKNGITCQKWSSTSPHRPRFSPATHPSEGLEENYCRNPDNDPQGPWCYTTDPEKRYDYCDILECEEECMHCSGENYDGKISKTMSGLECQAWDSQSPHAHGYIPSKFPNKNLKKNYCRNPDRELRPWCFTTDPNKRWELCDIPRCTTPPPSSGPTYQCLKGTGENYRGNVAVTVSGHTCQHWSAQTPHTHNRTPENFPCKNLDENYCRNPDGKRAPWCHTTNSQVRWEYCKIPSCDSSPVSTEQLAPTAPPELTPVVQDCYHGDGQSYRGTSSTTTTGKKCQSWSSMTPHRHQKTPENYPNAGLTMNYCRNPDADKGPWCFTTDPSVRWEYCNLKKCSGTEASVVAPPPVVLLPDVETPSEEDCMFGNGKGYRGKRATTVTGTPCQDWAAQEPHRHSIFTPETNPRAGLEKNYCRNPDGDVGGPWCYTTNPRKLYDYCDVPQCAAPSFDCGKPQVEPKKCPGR
T1 sequence (P03951 388-625 limits assumed): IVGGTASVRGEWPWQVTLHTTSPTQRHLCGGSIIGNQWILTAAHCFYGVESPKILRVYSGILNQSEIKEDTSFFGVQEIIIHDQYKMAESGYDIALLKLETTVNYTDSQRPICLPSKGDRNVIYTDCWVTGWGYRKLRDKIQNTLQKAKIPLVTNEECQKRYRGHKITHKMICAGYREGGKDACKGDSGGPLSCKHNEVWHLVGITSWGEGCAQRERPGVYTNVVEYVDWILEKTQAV
T1 sequence (P03951 19-387 partner limits assumed): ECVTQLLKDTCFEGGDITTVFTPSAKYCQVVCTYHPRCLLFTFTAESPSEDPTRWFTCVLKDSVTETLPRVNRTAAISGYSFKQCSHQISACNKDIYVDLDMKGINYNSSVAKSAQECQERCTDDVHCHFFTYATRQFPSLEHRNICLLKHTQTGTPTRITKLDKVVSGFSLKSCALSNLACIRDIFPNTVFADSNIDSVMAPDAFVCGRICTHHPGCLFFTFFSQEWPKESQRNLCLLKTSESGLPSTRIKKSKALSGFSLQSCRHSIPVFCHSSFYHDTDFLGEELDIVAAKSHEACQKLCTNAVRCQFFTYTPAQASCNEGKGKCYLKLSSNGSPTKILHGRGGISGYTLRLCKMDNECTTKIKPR

Row | Structure (SMILES) | IC50 (human factor XIa) | aPTT (concentration of test substance which brings about a 1.5-fold extension of the aPTT) (human and animal plasma) | IC50 (human plasmin)
1 | Cc1cc(C(=O)NC2CNCC(F)(F)C2)ncc1-c1ccc(C[C@H](NC(=O)[C@H]2CC[C@H](CN)CC2)C(=O)Nc2ccc(-c3nnn[nH]3)cc2)cc1 (stereo partly drawn) [Example 20, N-alpha-{[trans-4-(Aminomethyl)cyclohexyl]carbonyl}-4-{6-[(5,5-difluoropiperidin-3-yl)carbamoyl]-4-methylpyridin-3-yl}-N-[4-(1H-tetrazol-5-yl)phenyl]-L-phenylalaninamide hydrochloride] | 3.9 nM | 0.13 µmol/L | –
2 | Cc1cc(C(=O)N[C@@H]2CCCNC2=O)ncc1-c1ccc(C[C@H](NC(=O)[C@H]2CC[C@H](CN)CC2)C(=O)Nc2ccc(-c3nnn[nH]3)cc2)cc1 [Example 21, N-alpha-{[trans-4-(Aminomethyl)cyclohexyl]carbonyl}-4-(4-methyl-6-{[(3R)-2-oxopiperidin-3-yl]carbamoyl}pyridin-3-yl)-N-[4-(1H-tetrazol-5-yl)phenyl]-L-phenylalaninamide hydrochloride] | 1.3 nM | 0.15 µmol/L | –
3 | Cc1nc(C(=O)NC2CCC(O)CC2)ccc1-c1ccc(C[C@H](NC(=O)[C@H]2CC[C@H](CN)CC2)C(=O)Nc2ccc(-c3nn[nH]n3)cc2)cc1 (stereo partly drawn) [Example 22, N-alpha-{[trans-4-(Aminomethyl)cyclohexyl]carbonyl}-4-{6-[(4-hydroxycyclohexyl)carbamoyl]-2-methylpyridin-3-yl}-N-[4-(2H-tetrazol-5-yl)phenyl]-L-phenylalaninamide hydrochloride] | 2.5 nM | 0.16 µmol/L | –
4 | Cc1cc(C(=O)Nc2ccn(C)n2)ncc1-c1ccc(C[C@H](NC(=O)[C@H]2CC[C@H](CN)CC2)C(=O)Nc2ccc(-c3nnn[nH]3)cc2)cc1 [Example 23, N-alpha-{[trans-4-(Aminomethyl)cyclohexyl]carbonyl}-4-{4-methyl-6-[(1-methyl-1H-pyrazol-3-yl)carbamoyl]pyridin-3-yl}-N-[4-(1H-tetrazol-5-yl)phenyl]-L-phenylalaninamide hydrochloride] | 2.5 nM | 0.17 µmol/L | 4.5 nM
5 | CCN(CC)CCCNC(=O)c1ccc(-c2ccc(C[C@H](NC(=O)[C@H]3CC[C@H](CN)CC3)C(=O)Nc3ccc(-c4nn[nH]n4)cc3)cc2)c(C)n1 [Example 24, N-alpha-{[trans-4-(Aminomethyl)cyclohexyl]carbonyl}-4-(6-{[3-(diethylamino)propyl]-carbamoyl}-2-methylpyridin-3-yl)-N-[4-(2H-tetrazol-5-yl)phenyl]-L-phenylalaninamide hydrochloride] | 6 nM | 0.17 µmol/L | –
6 | Cc1cc(C(=O)N2CCNC(C)C2)ncc1-c1ccc(C[C@H](NC(=O)[C@H]2CC[C@H](CN)CC2)C(=O)Nc2ccc(-c3nnn[nH]3)cc2)cc1 (stereo partly drawn) [Example 25, N-alpha-{[trans-4-(Aminomethyl)cyclohexyl]carbonyl}-4-{4-methyl-6-[(3-methylpiperazin-1-yl)carbonyl]pyridin-3-yl}-N-[4-(1H-tetrazol-5-yl)phenyl]-L-phenylalaninamide hydrochloride] | 4.2 nM | 0.18 µmol/L | –
7 | Cc1nc(C(=O)N[C@@H]2CCNC2=O)ccc1-c1ccc(C[C@H](NC(=O)[C@H]2CC[C@H](CN)CC2)C(=O)Nc2ccc(-c3nn[nH]n3)cc2)cc1 [Example 26, N-alpha-{[trans-4-(Aminomethyl)cyclohexyl]carbonyl}-4-(2-methyl-6-{[(3R)-2-oxopyrrolidin-3-yl]carbamoyl}pyridin-3-yl)-N-[4-(2H-tetrazol-5-yl)phenyl]-L-phenylalaninamide hydrochloride] | 1.3 nM | 0.22 µmol/L | –
8 | Cc1nc(C(=O)NC2CCC(N(C)C)CC2)ccc1-c1ccc(C[C@H](NC(=O)[C@H]2CC[C@H](CN)CC2)C(=O)Nc2ccc3[nH]c(=O)[nH]c3c2)cc1 (stereo partly drawn) [Example 27, N-alpha-{[trans-4-(Aminomethyl)cyclohexyl]carbonyl}-4-(6-{[4-(dimethylamino)cyclohexyl]-carbamoyl}-2-methylpyridin-3-yl)-N-(2-oxo-2,3-dihydro-1H-benzimidazol-5-yl)-L-phenylalaninamide hydrochloride] | 19 nM | 0.22 µmol/L | –
9 | Cc1cc(C(=O)N[C@@H]2CCCNC2=O)ncc1-c1ccc(C[C@H](NC(=O)[C@H]2CC[C@H](CN)CC2)C(=O)Nc2ccc3[nH]c(=O)[nH]c3c2)cc1 [Example 28, N-alpha-{[trans-4-(Aminomethyl)cyclohexyl]carbonyl}-4-(4-methyl-6-{[(3R)-2-oxopiperidin-3-yl]carbamoyl}pyridin-3-yl)-N-(2-oxo-2,3-dihydro-1H-benzimidazol-5-yl)-L-phenylalaninamide hydrochloride] | 20 nM | 0.39 µmol/L | –
10 | Cc1nc(C(=O)N[C@H](C)CO)ccc1-c1ccc(C[C@H](NC(=O)[C@H]2CC[C@H](CN)CC2)C(=O)Nc2ccc(-c3nn[nH]n3)cc2)cc1 [Example 29, N-alpha-{[trans-4-(Aminomethyl)cyclohexyl]carbonyl}-4-(6-{[(2R)-1-hydroxypropan-2-yl]carbamoyl}-2-methylpyridin-3-yl)-N-[4-(2H-tetrazol-5-yl)phenyl]-L-phenylalaninamide hydrochloride] | 2.4 nM | – | 10 nM
11 | Cc1cc(C(=O)N2CCN(C)CC2)ncc1-c1ccc(C[C@H](NC(=O)[C@H]2CC[C@H](CN)CC2)C(=O)Nc2ccc(-c3nnn[nH]3)cc2)cc1 [Example 33, N-alpha-{[trans-4-(Aminomethyl)cyclohexyl]carbonyl}-4-{4-methyl-6-[(4-methylpiperazin-1-yl)carbonyl]pyridin-3-yl}-N-[4-(1H-tetrazol-5-yl)phenyl]-L-phenylalaninamide hydrochloride] | 4.2 nM | 0.44 µmol/L | –
12 | Cc1nc(C(=O)NC2CCC2)ccc1-c1ccc(C[C@H](NC(=O)[C@H]2CC[C@H](CN)CC2)C(=O)Nc2ccc3cn[nH]c3c2)cc1 [Example 34, N-alpha-{[trans-4-(Aminomethyl)cyclohexyl]carbonyl}-4-[6-(cyclobutylcarbamoyl)-2-methylpyridin-3-yl]-N-1H-indazol-6-yl-L-phenylalaninamide hydrochloride] | 8.2 nM | 0.41 µmol/L | 0.9 nM
13 | Cc1nc(C(=O)NC(C)C)ccc1-c1ccc(C[C@H](NC(=O)[C@H]2CC[C@H](CN)CC2)C(=O)Nc2ccc3[nH]c(=O)[nH]c3c2)cc1 [Example 40, N-alpha-{[trans-4-(Aminomethyl)cyclohexyl]carbonyl}-4-[6-(isopropylcarbamoyl)-2-methylpyridin-3-yl]-N-(2-oxo-2,3-dihydro-1H-benzimidazol-5-yl)-L-phenylalaninamide hydrochloride] | 15.5 nM | – | 1.8 nM
